Measured values taken from ChEMBL document CHEMBL1158172, “Preparation and antibacterial activity of cyclic 2',3'-carbamate derivatives of azithromycin” (Eur J Med Chem, 2008).
Activity calls are given as the source filed them. The calls are words filed in the database; no cut-off is given here.

Legend:
Staphylococcus aureus = assay: Antibacterial activity against Staphylococcus aureus ATCC 25923; assay type: functional, organism-based
Escherichia coli = assay: Antibacterial activity against Escherichia coli ATCC 25922; assay type: functional, organism-based

Row | Compound | Activity (Staphylococcus aureus) | Activity (Escherichia coli)
1 | CC[C@H]1OC(=O)[C@H](C)[C@@H](O[C@H]2C[C@@](C)(OC)[C@@H](O)[C@H](C)O2)[C@H](C)[C@@H](O[C@@H]2O[C@H](C)C[C@H]3[C@H]2OC(=O)N3C)[C@](C)(O)C[C@@H](C)CN[C@H](C)[C@@H]2OC(=O)O[C@]12C | inactive | inactive
2 | CC[C@H]1OC(=O)[C@H](C)[C@@H](O[C@H]2C[C@@](C)(OC)[C@@H](O)[C@H](C)O2)[C@H](C)[C@@H](O[C@@H]2O[C@H](C)C[C@H]3[C@H]2OC(=O)N3C)[C@](C)(O)C[C@@H](C)CN(C)[C@H](C)[C@@H]2OC(=O)O[C@]12C | inactive | inactive
